Source: patent publication US11673910B2, “Macrolides with modified desosamine sugars and uses thereof” (Zikani Therapeutics, Inc., priority 2017, dated 2023)
≈ marks a conversion by molar mass, not a printed value.

Experiments:
Assay type in all cases: cell-based
[1] = system: P. aeruginosa strain MP-3; test: Broth dilution MIC determination (CLSI) against P. aeruginosa strain MP-3; settings: Pseudomonas aeruginosa, MP3
In short: (§1)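 Activity is reported in categories: ≤4 mg/L as "+++", 8 to below 32 mg/L as "++", and 32 mg/L or more as "+". Testing followed CLSI broth dilution procedures.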

S. aureus strain MP-12 = test: Broth dilution MIC determination (CLSI) against S. aureus strain MP-12; settings: Staphylococcus aureus, MP12, strain MP-12
In short: as §1

[2] = system: A. baumannii strain MP-15; test: Broth dilution MIC determination (CLSI) against A. baumannii strain MP-15; settings: Acinetobacter baumannii, MP15
In short: as §1

E. coli strain MP-4 = test: Broth dilution MIC determination (CLSI) against E. coli strain MP-4; settings: Escherichia coli, MP4
In short: as §1

[3] = system: K. pneumoniae strain MP-548; test: Broth dilution MIC determination (CLSI) against K. pneumoniae strain MP-548; settings: Klebsiella pneumoniae, MP548
In short: as §1

MIC [1] [µg/mL] | MIC (S. aureus strain MP-12) [µg/mL] | MIC [2] [µg/mL] | MIC (E. coli strain MP-4) [µg/mL] | MIC [3] [µg/mL] | Compound
≥ 32 | ≥ 32 | ≥ 32 | ≤ 4 | 8 to 32 (≈ 11.2 to 44.9 µM) | CC[C@H]1OC(=O)C(C)C(=O)[C@H](C)[C@@H](OC2OC(CN3CCN(C)CC3)CC(N(C)C)C2O)[C@](C)(OC)C[C@@H](C)CN[C@H](C)[C@H]2NC(=O)O[C@@]21C (some centres unmarked) [Compound 126, 3-Descladinosyl-3-oxo-6-O-methyl-N9a-desmethyl-11,12-dideoxy-12,11-(oxycarbonylimino)-6′-(1-(4-methyl)-piperazinyl) Azithromycin]
≥ 32 | ≥ 32 | ≥ 32 | ≤ 4 | ≥ 32 | CC[C@H]1OC(=O)C(C)C(=O)[C@H](C)[C@@H](OC2OC(CN(C)C(C)C)CC(N(C)C)C2O)[C@](C)(OC)C[C@@H](C)CN(C)[C@H](C)[C@H]2NC(=O)O[C@@]21C (some centres unmarked) [Compound 160, 3-Desdadinosyl-3-oxo-6-O-methyl-9a-desmethyl-11,12-dideoxy-12,11-(oxycarbonylimino)-6′-isopropylmethylamino Azithromycin]
≥ 32 | ≥ 32 | ≥ 32 | 8 to 32 (≈ 11.9 to 47.7 µM) | ≥ 32 | CC[C@H]1OC(=O)C(C)C(=O)[C@H](C)[C@@H](OC2OC(CNC(C)C)CC(N(C)C)C2O)[C@](C)(OC)C[C@@H](C)CN[C@H](C)[C@H]2NC(=O)O[C@@]21C (some centres unmarked) [Compound 109, 3-Descladinosyl-3-oxo-6-O-methyl-N9a-desmethyl-11,12-dideoxy-12,11-(oxycarbonylimino)-6′-isopropylamino Azithromycin]
≥ 32 | 8 to 32 (≈ 11.1 to 44.3 µM) | ≥ 32 | ≤ 4 | 8 to 32 (≈ 11.1 to 44.3 µM) | CC[C@H]1OC(=O)C(C)C(=O)[C@H](C)[C@@H](O[C@@H]2OC(CNc3ccc(F)cc3)CC(N(C)C)C2O)[C@](C)(OC)C[C@@H](C)CN[C@H](C)[C@H]2NC(=O)O[C@@]21C (some centres unmarked) [Compound 46]
≥ 32 | ≤ 4 | 8 to 32 (≈ 11.3 to 45 µM) | ≤ 4 | 8 to 32 (≈ 11.3 to 45 µM) | CC[C@H]1OC(=O)C(C)C(=O)[C@H](C)[C@@H](OC2OC(CNCC(F)(F)F)CC(N(C)C)C2O)[C@](C)(OC)C[C@@H](C)CN[C@H](C)[C@H]2NC(=O)O[C@@]21C (some centres unmarked) [Compound 112, 3-Descladinosyl-3-oxo-6-O-methyl-N9a-desmethyl-11,12-dideoxy-12,11-(oxycarbonylimino)-6′-(2-trifluoroethylamino) Azithromycin]
≥ 32 | ≥ 32 | ≥ 32 | ≥ 32 | ≥ 32 | CC[C@H]1OC(=O)C(C)C(=O)[C@H](C)[C@@H](O[C@@H]2O[C@H]([C@@H](C)N(C)C)CC(N(C)C)[C@H]2O)[C@](C)(OC)C[C@@H](C)CN[C@H](C)[C@H]2NC(=O)O[C@@]21C (stereo partly drawn) [Compound 176, 3-Descladinosyl-3-oxo-6-O-methyl-N9a-desmethyl-11,12-dideoxy-12,11-(oxycarbonylimino)-6′-((R)-(dimethylamino)ethyl) Azithromycin]
≥ 32 | ≥ 32 | ≥ 32 | ≤ 4 | 8 to 32 (≈ 11.5 to 45.9 µM) | CC[C@H]1OC(=O)C(C)C(=O)[C@H](C)[C@@H](O[C@@H]2O[C@H](C(C)NCC3CC3)CC(N(C)C)[C@H]2O)[C@](C)(OC)C[C@@H](C)CN[C@H](C)[C@H]2NC(=O)O[C@@]21C (stereo partly drawn) [Compound 178, 3-Descladinosyl-3-oxo-6-O-methyl-N9a-desmethyl-11,12-dideoxy-12,11-(oxycarbonylimino)-6′-((R,S)-(cyclopropylmethylamino)ethyl) Azithromycin]
≥ 32 | ≥ 32 | ≥ 32 | ≤ 4 | ≥ 32 | CC[C@H]1OC(=O)C(C)C(=O)[C@H](C)[C@@H](OC2OC(CN(C)CC3CC3)CC(N(C)C)C2O)[C@](C)(OC)C[C@@H](C)CN[C@H](C)[C@H]2NC(=O)O[C@@]21C (some centres unmarked) [Compound 153, 3-Descladinosyl-3-oxo-6-O-methyl-N9a-desmethyl-11,12-dideoxy-12,11-(oxycarbonylimino)-6′-methylcyclopropylmethylamino Azithromycin]
≥ 32 | ≤ 4 | 8 to 32 (≈ 11.4 to 45.5 µM) | ≤ 4 | 8 to 32 (≈ 11.4 to 45.5 µM) | CC[C@H]1OC(=O)C(C)C(=O)[C@H](C)[C@@H](O[C@@H]2O[C@H](CCc3ccccc3)CC(N(C)C)[C@H]2O)[C@](C)(OC)C[C@@H](C)CN[C@H](C)[C@H]2NC(=O)O[C@@]21C (some centres unmarked) [Compound 186, 3-Descladinosyl-3-oxo-6-O-methyl-N9a-desmethyl-11,12-dideoxy-12,11-(oxycarbonylimino)-6′-benzyl Azithromycin]
≥ 32 | 8 to 32 (≈ 11 to 44.1 µM) | ≥ 32 | ≤ 4 | 8 to 32 (≈ 11 to 44.1 µM) | CC[C@H]1OC(=O)C(C)C(=O)[C@H](C)[C@@H](OC2OC(CNCCC(F)(F)F)CC(N(C)C)C2O)[C@](C)(OC)C[C@@H](C)CN[C@H](C)[C@H]2NC(=O)O[C@@]21C (some centres unmarked) [Compound 142, 3-Descladinosyl-3-oxo-6-O-methyl-N9a-desmethyl-11,12-dideoxy-12,11-(oxycarbonylimino)-6′-trifluoropropylamino Azithromycin]
≥ 32 | ≥ 32 | ≥ 32 | 8 to 32 (≈ 10.6 to 42.3 µM) | ≥ 32 | CC[C@H]1OC(=O)C(C)C(=O)[C@H](C)[C@@H](O[C@@H]2OC(CNc3ccc4ncncc4c3)CC(N(C)C)C2O)[C@](C)(OC)C[C@@H](C)CN[C@H](C)[C@H]2NC(=O)O[C@@]21C (some centres unmarked) [Compound 27]
≥ 32 | ≥ 32 | ≥ 32 | ≤ 4 | ≥ 32 | CC[C@H]1OC(=O)C(C)C(=O)[C@H](C)[C@@H](O[C@@H]2OC(CNCc3ccc4nccnc4c3)CC(N(C)C)C2O)[C@](C)(OC)C[C@@H](C)CN[C@H](C)[C@H]2NC(=O)O[C@@]21C (some centres unmarked) [Compound 23]
≥ 32 | 8 to 32 (≈ 11.1 to 44.3 µM) | ≥ 32 | 8 to 32 (≈ 11.1 to 44.3 µM) | ≥ 32 | CC[C@H]1OC(=O)C(C)C(=O)[C@H](C)[C@@H](O[C@@H]2OC(CNc3cccc(F)c3)CC(N(C)C)C2O)[C@](C)(OC)C[C@@H](C)CN[C@H](C)[C@H]2NC(=O)O[C@@]21C (some centres unmarked) [Compound 48]
≥ 32 | ≥ 32 | ≥ 32 | ≥ 32 | ≥ 32 | CC[C@H]1OC(=O)[C@]2(C)CCC(=O)CO[C@](C)(C[C@@H](C)CN[C@H](C)[C@H]3NC(=O)O[C@@]31C)[C@H](OC1OC(C)CC(N(C)C)C1O)[C@@H](C)C2=O (some centres unmarked) [Compound 226]
≥ 32 | ≥ 32 | ≥ 32 | ≥ 32 | ≥ 32 | CC[C@H]1OC(=O)C(C)C(=O)[C@H](C)[C@@H](O[C@@H]2O[C@H](C(=O)O)CC(N(C)C)[C@H]2O)[C@](C)(OC)C[C@@H](C)CN[C@H](C)[C@H]2NC(=O)O[C@@]21C (some centres unmarked) [Compound 193]
≥ 32 | ≥ 32 | ≥ 32 | ≥ 32 | ≥ 32 | CC[C@H]1OC(=O)C(C)C(=O)[C@H](C)[C@@H](OC2OC(CNCCO)CC(N(C)C)C2O)[C@](C)(OC)C[C@@H](C)CN[C@H](C)[C@H]2NC(=O)O[C@@]21C (some centres unmarked) [Compound 115, 3-Descladinosyl-3-oxo-6-O-methyl-N9a-desmethyl-11,12-dideoxy-12,11-(oxycarbonylimino)-6′-(2-hydroxyethylamino) Azithromycin]
≥ 32 | ≥ 32 | ≥ 32 | ≤ 4 | 8 to 32 (≈ 11.6 to 46.6 µM) | CC[C@H]1OC(=O)C(C)C(=O)[C@H](C)[C@@H](OC2OC(CNCCOC)CC(N(C)C)C2O)[C@](C)(OC)C[C@@H](C)CN[C@H](C)[C@H]2NC(=O)O[C@@]21C (some centres unmarked) [Compound 114, 3-Descladinosyl-3-oxo-6-O-methyl-N9a-desmethyl-11,12-dideoxy-12,11-(oxycarbonylimino)-6′-(2-methoxyamino) Azithromycin]

Compound | MIC [1] [µg/mL] | MIC (S. aureus strain MP-12) [µg/mL] | MIC [2] [µg/mL] | MIC (E. coli strain MP-4) [µg/mL] | MIC [3] [µg/mL]
CC[C@H]1OC(=O)[C@@]2(C)CCOC(C)(C[C@@H](C)CN(C)[C@H](C)[C@H]3NC(=O)O[C@@]31C)[C@H](O[C@@H]1O[C@H](CNC3CC3)C[C@H](N(C)C)[C@H]1O)[C@@H](C)C2=O [Compound 208] | ≥ 32 | ≤ 4 | 8 to 32 (≈ 11.5 to 46 µM) | ≤ 4 | ≤ 4
CC[C@H]1OC(=O)[C@@]2(C)CCO[C@](C)(C[C@@H](C)CN[C@H](C)[C@H]3NC(=O)O[C@@]31C)[C@H](O[C@@H]1O[C@H](CNC3CC3)C[C@H](N(C)C)[C@H]1O)[C@@H](C)C2=O [Compound 202] | ≥ 32 | ≤ 4 | 8 to 32 (≈ 11.7 to 47 µM) | ≤ 4 | ≤ 4
CC[C@H]1OC(=O)[C@@]2(C)CCOC(C)(C[C@@H](C)CN(C)[C@H](C)[C@H]3NC(=O)O[C@@]31C)[C@H](O[C@@H]1OC(C)CC(N(C)C)C1O)[C@@H](C)C2=O (some centres unmarked) [Compound 223] | ≥ 32 | ≤ 4 | 8 to 32 (≈ 12.5 to 50 µM) | ≤ 4 | ≤ 4
CC[C@H]1OC(=O)[C@@]2(C)CCOC(C)(C[C@@H](C)CN[C@H](C)[C@H]3NC(=O)O[C@@]31C)[C@H](O[C@@H]1O[C@H](CNCC(F)(F)F)C[C@H](N(C)C)[C@H]1O)[C@@H](C)C2=O [Compound 206] | ≥ 32 | ≤ 4 | ≥ 32 | ≤ 4 | 8 to 32 (≈ 11.1 to 44.3 µM)
CC[C@H]1OC(=O)[C@]2(C)CCO[C@](C)(C[C@@H](C)CN[C@H](C)[C@H]3NC(=O)O[C@@]31C)[C@H](O[C@@H]1O[C@H](CNCC3CC3)C[C@H](N(C)C)[C@H]1O)[C@@H](C)C2=O [Compound 196] | ≥ 32 | ≥ 32 | ≥ 32 | 8 to 32 (≈ 11.5 to 46 µM) | ≥ 32
